CCOC(=O)[C@@H](N)Cc1ccccc1.Cl
solubility (mole fraction)
Conditions	283.15 K	288.15 K	293.15 K	298.15 K	303.15 K	308.15 K	313.15 K	318.15 K	323.15 K
in 1,4-dioxane	–	0.0023	0.00301	0.0037	0.00498	0.00668	0.00876	0.0115	0.0148
in 2-butoxyethanol	0.035	0.039	0.0435	0.0473	0.052	0.0575	0.0633	0.0695	0.076
in 2-propoxyethanol	0.042	0.0472	0.052	0.0557	0.0616	0.0675	0.0738	0.08	0.087
in THF	0.00079	0.00102	0.00127	0.0016	0.00204	0.00257	0.00316	0.00398	0.00491
in isopropanol	0.0074	0.00934	0.0117	0.0147	0.0189	0.0227	0.0278	0.0337	0.0413
in n-butanol	0.0176	0.0218	0.0262	0.032	0.0355	0.0417	0.0509	0.0601	0.0696
in n-propanol	0.0272	0.0316	0.0367	0.0423	0.0491	0.0566	0.0656	0.0734	0.0838

Source: BigSolDB 2.1
